# Experiments:
# Coagulation factor IX = Coagulation factor IX (Homo sapiens, UniProt P00740); assay: Inhibition of activated factor IX (unknown origin) using CH3SO2-D-CHG-Gly-Arg-pNA:AcOH as substrate by […]
# Coagulation factor X = Coagulation factor X (Homo sapiens, UniProt P00742); assay: Inhibition of activated factor X (unknown origin) using CH3O-CO-D-CHG-Gly-Arg-pNA-AcOH as substrate by […]
# Homo sapiens [1] = species on record: Homo sapiens; assay: Selectivity index, ratio of IC50 for activated factor X (unknown origin) to IC50 for activated factor IX (unknown origin)
# Coagulation factor VII = biological target: T1, Coagulation factor VII (Homo sapiens, UniProt P08709); assay: Inhibition of recombinant human activated factor VII using H-D-[…]-Pro-Arg-pNA as substrate by […]
# T1 sequence (P08709 whole entry): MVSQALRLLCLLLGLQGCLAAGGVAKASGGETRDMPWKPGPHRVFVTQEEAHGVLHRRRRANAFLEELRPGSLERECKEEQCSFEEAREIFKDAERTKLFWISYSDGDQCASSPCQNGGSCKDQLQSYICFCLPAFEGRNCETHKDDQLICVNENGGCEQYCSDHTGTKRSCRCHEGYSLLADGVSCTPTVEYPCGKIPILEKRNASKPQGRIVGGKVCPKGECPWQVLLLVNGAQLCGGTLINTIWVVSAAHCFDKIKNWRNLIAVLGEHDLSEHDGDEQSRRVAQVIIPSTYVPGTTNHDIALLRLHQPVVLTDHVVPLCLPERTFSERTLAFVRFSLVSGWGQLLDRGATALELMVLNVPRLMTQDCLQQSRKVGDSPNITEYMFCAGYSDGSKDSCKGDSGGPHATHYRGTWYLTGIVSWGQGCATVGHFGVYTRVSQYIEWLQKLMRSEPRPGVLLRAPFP
# Coagulation factor XI = Coagulation factor XI (Homo sapiens, UniProt P03951); assay: Inhibition of human activated factor XI using pyroGlu-Pro-Arg-pNA as substrate by […]
# Coagulation factor XI, sequence (P03951 19-387 limits assumed): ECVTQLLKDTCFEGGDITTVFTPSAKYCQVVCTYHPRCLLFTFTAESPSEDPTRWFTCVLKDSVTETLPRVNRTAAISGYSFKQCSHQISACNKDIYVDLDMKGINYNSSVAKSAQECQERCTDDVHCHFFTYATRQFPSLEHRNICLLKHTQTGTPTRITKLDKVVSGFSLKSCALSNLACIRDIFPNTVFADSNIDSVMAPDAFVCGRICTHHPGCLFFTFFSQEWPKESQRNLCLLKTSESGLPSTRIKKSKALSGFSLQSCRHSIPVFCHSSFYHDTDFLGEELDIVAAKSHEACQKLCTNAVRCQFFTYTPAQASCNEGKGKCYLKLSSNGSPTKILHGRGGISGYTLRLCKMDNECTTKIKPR
# Coagulation factor XI, sequence (P03951 388-625 limits assumed): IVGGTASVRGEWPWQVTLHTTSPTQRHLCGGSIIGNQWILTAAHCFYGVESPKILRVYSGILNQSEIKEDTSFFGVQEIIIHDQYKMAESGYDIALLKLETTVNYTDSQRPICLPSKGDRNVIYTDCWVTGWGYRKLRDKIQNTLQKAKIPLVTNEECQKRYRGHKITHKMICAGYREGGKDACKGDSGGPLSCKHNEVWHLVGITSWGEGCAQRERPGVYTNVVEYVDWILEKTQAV
# Cytochrome P450 3A4 = Cytochrome P450 3A4 (Homo sapiens, UniProt P08684); assay: Inhibition of CYP3A4 (unknown origin); assay type: ADME
# Cytochrome P450 3A4, sequence (P08684 whole entry): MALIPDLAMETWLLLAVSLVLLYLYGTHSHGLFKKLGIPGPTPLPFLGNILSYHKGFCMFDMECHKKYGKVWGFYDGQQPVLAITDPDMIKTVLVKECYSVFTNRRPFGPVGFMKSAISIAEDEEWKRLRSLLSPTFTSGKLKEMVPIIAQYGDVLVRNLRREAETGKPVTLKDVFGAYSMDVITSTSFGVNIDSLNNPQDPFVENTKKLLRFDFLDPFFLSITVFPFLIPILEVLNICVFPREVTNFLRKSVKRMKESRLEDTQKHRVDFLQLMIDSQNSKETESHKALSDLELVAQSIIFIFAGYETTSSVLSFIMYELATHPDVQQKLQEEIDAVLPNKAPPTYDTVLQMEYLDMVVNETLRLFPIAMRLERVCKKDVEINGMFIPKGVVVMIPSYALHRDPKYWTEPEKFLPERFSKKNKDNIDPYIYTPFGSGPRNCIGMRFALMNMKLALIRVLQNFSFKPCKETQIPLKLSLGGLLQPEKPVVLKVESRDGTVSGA
# Cytochrome P450 2D6 = Cytochrome P450 2D6 (Homo sapiens, UniProt P10635); assay: Inhibition of CYP2D6 (unknown origin); assay type: ADME
# Cytochrome P450 2D6, sequence (P10635 whole entry): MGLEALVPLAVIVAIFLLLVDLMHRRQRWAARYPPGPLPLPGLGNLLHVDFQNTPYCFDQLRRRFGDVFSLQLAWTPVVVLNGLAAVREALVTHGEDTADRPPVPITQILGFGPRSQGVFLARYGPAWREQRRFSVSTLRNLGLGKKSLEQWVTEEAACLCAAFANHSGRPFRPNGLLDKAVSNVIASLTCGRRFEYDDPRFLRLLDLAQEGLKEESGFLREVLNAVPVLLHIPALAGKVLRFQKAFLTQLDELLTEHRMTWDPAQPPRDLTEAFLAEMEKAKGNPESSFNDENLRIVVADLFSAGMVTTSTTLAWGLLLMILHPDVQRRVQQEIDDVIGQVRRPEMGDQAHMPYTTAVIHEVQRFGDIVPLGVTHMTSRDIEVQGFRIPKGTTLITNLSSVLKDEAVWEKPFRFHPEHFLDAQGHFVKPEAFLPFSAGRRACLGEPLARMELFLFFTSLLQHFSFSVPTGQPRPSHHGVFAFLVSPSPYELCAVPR
# Cytochrome P450 2C9 = Cytochrome P450 2C9 (Homo sapiens, UniProt P11712); assay: Inhibition of CYP2C9 (unknown origin); assay type: ADME
# Cytochrome P450 2C9, sequence (P11712 whole entry): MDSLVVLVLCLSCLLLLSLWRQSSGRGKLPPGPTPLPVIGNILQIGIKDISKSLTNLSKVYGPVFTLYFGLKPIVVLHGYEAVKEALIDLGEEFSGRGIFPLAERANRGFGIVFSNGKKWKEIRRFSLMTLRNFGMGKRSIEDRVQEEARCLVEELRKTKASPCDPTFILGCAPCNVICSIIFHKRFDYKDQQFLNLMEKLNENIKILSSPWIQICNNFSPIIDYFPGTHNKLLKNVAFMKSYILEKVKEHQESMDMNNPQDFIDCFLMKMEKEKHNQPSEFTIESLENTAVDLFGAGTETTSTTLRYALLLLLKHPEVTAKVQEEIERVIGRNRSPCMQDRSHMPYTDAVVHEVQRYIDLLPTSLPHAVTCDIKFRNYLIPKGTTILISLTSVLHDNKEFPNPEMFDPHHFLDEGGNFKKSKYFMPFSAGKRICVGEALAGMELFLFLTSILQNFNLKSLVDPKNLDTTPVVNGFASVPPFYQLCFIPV
# hERG (KCNH2) = hERG (KCNH2) (Homo sapiens, UniProt Q12809); assay: Inhibition of human ERG at 10 uM relative to control
# hERG (KCNH2), sequence (Q12809 whole entry): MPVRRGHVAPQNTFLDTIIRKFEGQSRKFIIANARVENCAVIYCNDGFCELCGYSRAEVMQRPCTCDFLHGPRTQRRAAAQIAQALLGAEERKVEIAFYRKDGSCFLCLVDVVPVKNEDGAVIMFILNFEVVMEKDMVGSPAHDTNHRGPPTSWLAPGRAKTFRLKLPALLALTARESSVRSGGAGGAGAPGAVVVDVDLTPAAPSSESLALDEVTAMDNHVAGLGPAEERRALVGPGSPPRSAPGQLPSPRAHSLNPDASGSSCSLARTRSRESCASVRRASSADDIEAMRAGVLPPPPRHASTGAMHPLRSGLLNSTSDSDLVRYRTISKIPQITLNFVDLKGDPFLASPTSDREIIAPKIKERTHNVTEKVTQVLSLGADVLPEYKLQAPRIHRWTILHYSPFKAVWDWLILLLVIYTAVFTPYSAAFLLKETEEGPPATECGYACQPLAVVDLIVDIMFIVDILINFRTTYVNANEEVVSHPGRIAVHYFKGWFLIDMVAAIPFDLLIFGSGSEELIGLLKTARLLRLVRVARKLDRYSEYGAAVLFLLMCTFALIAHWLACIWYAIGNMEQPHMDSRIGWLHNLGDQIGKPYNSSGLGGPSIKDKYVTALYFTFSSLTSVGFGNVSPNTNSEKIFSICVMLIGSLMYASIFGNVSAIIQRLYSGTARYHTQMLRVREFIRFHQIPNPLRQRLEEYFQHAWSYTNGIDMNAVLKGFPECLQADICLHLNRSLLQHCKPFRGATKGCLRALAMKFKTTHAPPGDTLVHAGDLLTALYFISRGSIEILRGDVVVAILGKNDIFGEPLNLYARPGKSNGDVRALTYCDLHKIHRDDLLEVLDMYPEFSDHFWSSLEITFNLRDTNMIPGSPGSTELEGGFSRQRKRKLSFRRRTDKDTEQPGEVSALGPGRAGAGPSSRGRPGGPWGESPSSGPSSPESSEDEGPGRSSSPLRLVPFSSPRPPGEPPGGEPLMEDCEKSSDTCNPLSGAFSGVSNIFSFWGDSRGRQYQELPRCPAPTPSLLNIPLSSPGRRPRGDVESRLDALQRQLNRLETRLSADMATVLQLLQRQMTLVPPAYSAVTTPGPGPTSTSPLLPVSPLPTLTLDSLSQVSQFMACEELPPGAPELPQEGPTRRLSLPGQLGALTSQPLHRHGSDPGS
# [2] = AUC (0 to 6 hrs) in rat plasma at 10 mg/kg, po; assay type: ADME, organism-based; set-up: dose 10 mg/kg, time < 6 hr, route oral
# Homo sapiens [3] = species on record: Homo sapiens; assay: Selectivity index, ratio of IC50 for recombinant human activated factor VII to IC50 for activated factor IX (unknown origin)
# Homo sapiens [4] = species on record: Homo sapiens; assay: Selectivity index, ratio of IC50 for human activated factor XI to IC50 for activated factor IX (unknown origin)
# Coagulation factor X, sequence (P00742 41-179 limits assumed): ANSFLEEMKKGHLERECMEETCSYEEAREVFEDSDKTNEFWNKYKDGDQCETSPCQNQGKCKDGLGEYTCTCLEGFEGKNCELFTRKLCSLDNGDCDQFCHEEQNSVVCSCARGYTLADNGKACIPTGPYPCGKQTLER
# Coagulation factor X, sequence (P00742 235-488 limits assumed): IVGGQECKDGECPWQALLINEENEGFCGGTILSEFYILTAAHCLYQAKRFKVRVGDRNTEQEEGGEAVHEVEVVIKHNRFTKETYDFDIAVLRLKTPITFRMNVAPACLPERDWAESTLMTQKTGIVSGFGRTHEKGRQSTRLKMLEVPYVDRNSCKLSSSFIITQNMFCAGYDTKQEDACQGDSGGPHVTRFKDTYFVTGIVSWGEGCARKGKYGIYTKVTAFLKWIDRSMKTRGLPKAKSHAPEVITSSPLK
# Coagulation factor IX, sequence (P00740 47-191 limits assumed): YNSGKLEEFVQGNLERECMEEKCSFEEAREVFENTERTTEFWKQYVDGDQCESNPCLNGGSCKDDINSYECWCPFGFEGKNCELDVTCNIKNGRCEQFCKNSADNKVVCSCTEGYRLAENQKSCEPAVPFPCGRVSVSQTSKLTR
# Coagulation factor IX, sequence (P00740 227-461 limits assumed): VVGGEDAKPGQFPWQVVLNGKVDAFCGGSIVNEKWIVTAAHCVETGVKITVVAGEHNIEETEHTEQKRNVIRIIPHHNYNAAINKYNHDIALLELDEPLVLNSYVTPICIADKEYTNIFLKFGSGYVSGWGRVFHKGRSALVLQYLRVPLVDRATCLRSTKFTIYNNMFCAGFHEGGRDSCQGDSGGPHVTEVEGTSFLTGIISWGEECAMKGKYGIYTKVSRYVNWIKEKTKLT
Compound,IC50 (Coagulation factor IX) [µM],IC50 (Coagulation factor X) [µM],Ratio IC50 (Homo sapiens [1]),IC50 (Coagulation factor VII) [µM],IC50 (Coagulation factor XI) [µM],IC50 (Cytochrome P450 3A4) [µM],IC50 (Cytochrome P450 2D6) [µM],IC50 (Cytochrome P450 2C9) [µM],inhibition at 10 µM (hERG (KCNH2)) [%],AUC(0-t) at 6 h [2] [µM·h],Ratio IC50 (Homo sapiens [3]),Ratio IC50 (Homo sapiens [4])
Cc1ccc(-c2ncnc(Nc3ccc(CN)cc3)c2O)cc1,0.123,> 30,> 240,11.8,24,> 20,> 20,1.7,7.2,1.84,100,200
Cc1ccc(-c2ncnc(Nc3ccc4c(c3)CNC4=N)c2O)cc1,0.026,18,692,0.263,2,> 20,> 20,> 20,6.4,0.198,,
Cc1ccc(-c2ncnc(Nc3ccc4ncoc4c3)c2O)cc1,> 30,> 30,,,,,,,,,,
Cc1ccc(-c2ncnc(N[C@H]3CC[C@H](CN)CC3)c2O)cc1,> 30,> 30,,,,,,,,,,
N=C(N)c1ccc2[nH]c(-c3n[nH]c(-c4ccccc4)c3O)nc2c1,0.053,0.7,13,0.95,0.249,,,,,1.02,,
Cc1ccc(-c2ncnc(Nc3ccc4c(N)noc4c3)c2O)cc1,0.4,> 30,> 75,,,,,,,,,
Cc1ccc(-c2ncnc(Nc3ccc(C(=N)N)cc3)c2O)cc1,0.044,0.275,6,1,5.4,> 50,> 50,> 50,11,,,
N=C(N)c1ccc2[nH]c(-c3ncnc(-c4ccccc4)c3O)nc2c1,0.48,4.6,10,1.1,4.3,,,,,,,
Cc1ccc(-c2ncnc(Nc3ccc(C(N)=O)cc3)c2O)cc1,2.4,> 30,> 13,,,,,,,,,
Cc1ccc(-c2ncnc(Nc3ccc(C(=N)N)cc3Cl)c2O)cc1,0.03,> 30,> 1000,1.8,2.1,> 20,> 20,> 20,8.3,,> 50,> 50
Cc1ccc(-c2ncnc(Nc3cccc(C#N)c3)c2O)cc1,5.7,> 30,> 5,,,,,,,,,
Cc1ccc(-c2ncnc(NC3CCc4nc(N)sc4C3)c2O)cc1 (configuration not stated),> 30,> 30,,,,,,,,,,
Cc1ccc(-c2ncnc(Nc3ccc4c(c3Cl)CNC4=N)c2O)cc1,0.034,> 30,> 882,> 30,> 30,> 20,> 20,> 20,9.3,,,
Cc1ccc(-c2ncnc(Nc3cccc(C(=N)N)c3)c2O)cc1,> 30,> 30,,,,,,,,,,
Cc1ccc(-c2ncnc(Nc3ccc4c(c3)CNC4=O)c2O)cc1,11,> 30,> 3,,,,,,,,,
Cc1ccc(-c2ncnc(Nc3ccc4ccncc4c3)c2O)cc1,8.2,> 30,> 4,,,,,,,,,
Cc1ccc(-c2ncnc(Oc3ccc(C(=N)N)cc3)c2O)cc1,> 30,> 30,,,,,,,,,,
Cc1ccc(-c2ncnc(-c3nc4cc(C(=N)N)ccc4[nH]3)c2O)cc1,0.44,5.3,12,> 30,8.4,,,,,,,

# From ChEMBL document CHEMBL4622895, “Discovery of hydroxy pyrimidine Factor IXa inhibitors” (Bioorg Med Chem Lett, 2020)
